Reference: patent US9969767B2, “Oxolupene derivatives” (priority 2014, dated 2018)

Test system: recombinant NL4-3 virus (Renilla luciferase in nef, Gag P373S)
Test: HIV Cell Culture Assay (luciferase reporter virus in MT-2 cells)
Type: cell-based
Details: NL43
Experimental: MT-2 cells and 293T cells were obtained from the NIH AIDS Research and Reference Reagent Program. MT-2 cells were propagated in RPMI 1640 media supplemented with 10% heat inactivated fetal bovine serum, […]. The 293T cells were propagated in DMEM media supplemented with 10% heat inactivated fetal bovine serum (FBS), 100 units/mL penicillin G and 100 μg/mL streptomycin. The proviral DNA clone of NL4-3 was obtained from the NIH AIDS Research and Reference Reagent Program. A recombinant NL4-3 virus, in which a section of the nef gene from NL4-3 was replaced with the Renilla luciferase gene, was used as a reference virus. In addition, residue Gag P373 was converted to P373S. Briefly, the recombinant virus was prepared by transfection of the altered proviral clone of NL4-3. Transfections were performed in 293T cells using LipofectAMINE PLUS from Invitrogen (Carlsbad, Calif.), according to manufacturer's instruction. The virus was titered in MT-2 cells using luciferase enzyme activity as a marker. Luciferase was quantitated using the Dual Luciferase kit from Promega (Madison, Wis.), with modifications to the manufacturer's protocol. The diluted Passive Lysis solution was pre-mixed with the re-suspended Luciferase Assay Reagent and the re-suspended Stop & Glo Substrate (2:1:1 ratio). Fifty (50) μL of the mixture was added to each aspirated well on assay plates and luciferase activity was measured immediately on a Wallac TriLux (Perkin-Elmer). Antiviral activities of inhibitors toward the recombinant virus were quantified by measuring luciferase activity in cells infected for 4-5 days with NLRluc recombinants in the presence serial dilutions of the inhibitor.

Row | Compound | EC50 [nM]
1 | CC(C)C1=C2[C@H]3CC[C@@H]4[C@@]5(C)CC=C(C6=CCC(C(=O)O)CC6)C(C)(C)[C@@H]5CC[C@@]4(C)[C@]3(C)CC[C@@]2(NCCN2CCS(=O)(=O)CC2)CC1=O (stereo partly drawn) [Example 6, 4-((3aR,5aR,5bR,7aR,11aS,11bR,13aS)-3a-((2-(1,1-dioxidothiomorpholino)ethyl)amino)-1-isopropyl-5a,5b,8,8,11a-pentamethyl-2-oxo-3,3a,4,5,5a,5b,6,7,7a,8,11,11a,11b,12,13,13a-hexadecahydro-2H-cyclopenta[a]chrysen-9-yl)cyclohex-3-enecarboxylic acid] | < 100
2 | CC(C)C1=C2[C@H]3CC[C@@H]4[C@@]5(C)CC=C(C6=CCC(C(=O)O)CC6)C(C)(C)[C@@H]5CC[C@@]4(C)[C@]3(C)CC[C@@]2(C(=O)O)CC1=O (stereo partly drawn) [Example 4, (3aR,5aR,5bR,7aR,11aS,11bR,13aS)-9-(4-carboxycyclohex-1-en-1-yl)-1-isopropyl-5a,5b,8,8,11a-pentamethyl-2-oxo-3,3a,4,5,5a,5b,6,7,7a,8,11,11a,11b,12,13,13a-hexadecahydro-2H-cyclopenta[a]chrysene-3a-carboxylic acid] | < 100
